From US20240374612A1, “IMIDAZOBENZO[…] TREATMENT OF COGNITIVE AND MOOD SYMPTOMS” (UWM Research Foundation, Inc., priority 2021, published 2024)
Entries after “also recorded” stand apart in the source; their conditions may differ.

Tests used:
[1] = system: C57/Bl6 mice subjected to chronic restraint stress (working memory deficit); assay: Y-maze alternation task after chronic restraint stress (CRS); assay type: in vivo; conditions: acute, 30 min before testing, vs CRS vehicle
Protocol: Young Animals and chronic stress procedure: C57/Bl6 mice, males and females at 8 weeks old and are kept in normal housing conditions (12 h light ON cycle starting at 7 am/water and food ad libitum) for one week. During this week, animals are single housed and handled to reduce the anxiety-like response toward the experimenter. To induce a working memory deficit, mice are subjected to a chronic restraint stress protocol (CRS). They are placed in a 50 mL Falcon® tube, twice a day, for 1 hour during their diurnal cycle. The time of occurrence of the stress is randomized every day to avoid predictability. CRS is not applied on testing days. Y-maze test occurs 15 hours minimum after the last stressor.
Protocol: Mice are first habituated to the Y-maze apparatus and distal cues during 2 consecutive days over a 10 min free exploration session (one session per day). The next day, animals perform a training session consisting in seven successive trials separated by a 30 s inter-trial interval (ITI); during this training session, mice are familiarized with the experimental procedure (opening and closing of the doors and confinement into the goal arms). For each trial, mice remain in the start-box for a 30 s ITI. Then, the door is opened and the mouse is allowed to enter freely one of the two goal arms; the chosen arm is closed and the choice is recorded. After a 30 s confinement period into the chosen arm, the mouse is removed and brought back to the start-box for a second trial identical to the first one and this procedure is repeated over the series of trials.
The same general procedure used in the training session is implemented 24 h later, except that the ITI was lengthened to 90 s. For this experiment, animals are acutely injected i.p. with vehicle or drug, 30 minutes before the beginning of the test. To dissociate memory deficits from an eventual progressive loss of motivation to alternate over the series, an 8th trial is added to the series which is separated from the 7th trial by a shorter ITI (5 s). All animals failing to alternate at the 8th trial are excluded. The mean alternation rate is calculated and is expressed in percentage (number of alternation done by the animal/total number of alternation possible×100)±SEM. The percentage of alternation during the entire task is considered as an index of working memory performance (50% of being a random alternation rate). Factorial ANOVA is applied to the data to reveal differences between groups. If the ANOVA is significant for group effect (p<0.05), Scheffe post-hoc analysis are conducted to identify which groups are different from each other.
Drug preparation and administration: All drugs are diluted in a vehicle solution containing 85% H2O, 14% propylene glycol (Sigma Aldrich) and 1% Tween 80 (Sigma Aldrich). Working solutions are prepared at a concentration of 10 mg/mL and administered i.p. adjusted to the body weight of each animal. Doses used are either 1, 5, 10 or 20 mg/kg. For all Y maze experiments, animals are acutely injected i.p. with vehicle or drug, 30 minutes before the beginning of the test.

[2] = system: mice (anxiety like behaviors); assay: Elevated plus maze (EPM); assay type: in vivo; conditions: vs vehicle
Protocol: The EPM is commonly used in preclinical rodent models to assess anxiety-like behaviors. Briefly, mice are placed in a cross-shaped maze raised at 55 cm from the floor, with 2 open arms facing each other, and 2 closed arms facing each other. During testing, mice are individually placed in the center of the maze facing an open arm and allowed to explore for 10 minutes. Throughout testing, the exploration of each mouse is recorded using a digital camera mounted on the ceiling. After 10 minutes of exploration, the camera is stopped and the mouse is removed from the maze and returned to its home cage. The videos are analyzed using Ethovision XT14 software. Specific parameters considered are: % time spent in the open arms, calculated using ([(total time spent in open arms)/(total time spent in open arms+total time spent in closed arms)]*100) and the number of open arm entries.

[3] = 3 mg/kg i.p., 30 min before testing

SMILES | reversal of CRS-induced reduction of alternation rate (Y-maze) ([1]; 3 mg/kg i.p.) | reversal of CRS-induced reduction of alternation rate (Y-maze) ([1]; 10 mg/kg i.p.) | reversal of CRS-induced reduction of alternation rate (Y-maze) ([1]; 30 mg/kg i.p.) | other results
C#Cc1ccc2c(c1)C(c1ccccc1Cl)=N[C@@H](C)c1c(C(=O)NC)ncn1-2 [FR-III-17, (S)-6-(2-chlorophenyl)-8-ethynyl-N,4-dimethyl-4H-benzo[f]imidazo[1,5-a][1,4]diazepine-3-carboxamide] | significantly reversed |  |  | reversal of CRS-induced reduction of alternation rate (Y-maze) ([1]; 0.3 mg/kg i.p.): significantly reversed; reversal of CRS-induced reduction of alternation rate (Y-maze) ([1]; 1 mg/kg i.p.): significantly reversed; % distance traveled in the open arms (EPM) [2, 3]: significantly increase; % entries in the open arms (EPM) [2, 3]: significantly increase; % time in the open arms (EPM) [2, 3]: significantly increase
C#Cc1ccc2c(c1)C(c1ccccc1Cl)=N[C@@H](C)c1c(-c3nc(C)no3)ncn1-2 [FR-PM-III-57S, (S)-5-(6-(2-chlorophenyl)-8-ethynyl-4-methyl-4H-benzo[f]imidazo[1,5-a][1,4]diazepin-3-yl)-3-methyl-1,2,4-oxadiazole] |  | significantly reversed; also recorded: significantly improved alternation rate | trend level effect | 
Cc1noc(-c2ncn3c2[C@@H](C)N=C(c2ccccc2F)c2cc(Br)ccc2-3)n1 [GL-III-60, (R)-5-(8-Bromo-6˜(2-fluorophenyl)-4-methyl-4H-benzo[f]imidazo[1,5-a][1,4]diazepin-3-yl)-3-methyl-1,2,4-oxadiazole] |  | reversed | reversed | 
CCc1noc(-c2ncn3c2[C@@H](C)N=C(c2ccccc2F)c2cc(C4CC4)ccc2-3)n1 [GL-IV-03, (R)-5-(8-Cyclopropyl-6-(2-fluorophenyl)-4-methyl-4H-benzo[f]imidazo[1,5-a][1,4]diazepin-3-yl)-3-ethyl-1,2,4-oxadiazole] | reversed |  | reversed | 
C#Cc1ccc2c(c1)C(c1ccccn1)=N[C@@H](C)c1c(C(=O)NC)ncn1-2 [MYM-III-29, (S)-8-ethynyl-N,4-dimethyl-6-(pyridin-2-yl)-4H-benzo[f]imidazo[1,5-a][1,4]diazepine-3-carboxamide] | no significant difference between groups | reversed (p<0.05) |  | distance travelled in the open arms (EPM) ([2]; 10 mg/kg i.p.): increasing distance travelled in the open arms
C[C@H]1N=C(c2ccccc2F)c2cc(-c3ccccc3)ccc2-n2cnc(C(=O)N(C)C)c21 [MYM-III-41, (R)-6-(2-fluorophenyl)-N,N,4-trimethyl-8-phenyl-4H-benzo[f]imidazo[1,5-a][1,4]diazepine-3-carboxamide] |  | reversed |  | reversal of CRS-induced reduction of alternation rate (Y-maze) ([1]; 5 mg/kg i.p.): reversed
CCc1noc(-c2ncn3c2CN=C(c2ccccc2F)c2cc(C4CC4)ccc2-3)n1 [MYM-III-43, 5-(8-cyclopropyl-6-(2-fluorophenyl)-4H-benzo[f]imidazo[1,5-a][1,4]diazepin-3-yl)-3-ethyl-1,2,4-oxadiazole] | reversed | reversed | reversed | 
CC(C)c1noc(-c2ncn3c2[C@@H](C)N=C(c2ccccc2F)c2cc(Cl)ccc2-3)n1 [MYM-IV-46, (R)-5-(8-chloro-6-(2-fluorophenyl)-4-methyl-4H-benzo[f]imidazo[1,5-a][1,4]diazepin-3-yl)-3-isopropyl-1,2,4-oxadiazole] | no significant effect | significantly reversed; also recorded: improved alternation rate | trend level effect | 
C[C@H]1N=C(c2ccccc2F)c2cc(Cl)ccc2-n2cnc(-c3nc(C4CC4)no3)c21 [MYM-IV-47, (R)-5-(8-chloro-6-(2-fluorophenyl)-4-methyl-4H-benzo[f]imidazo[1,5-a][1,4]diazepin-3-yl)-3-cyclopropyl-1,2,4-oxadiazole] | no significant effect | significantly reversed | significantly reversed | 
C#Cc1ccc2c(c1)C(c1ccccc1F)=N[C@H](C)c1c(-c3nc(C4CC4)no3)ncn1-2 [MYM-V-28, (R)-3-cyclopropyl-5-(8-ethynyl-6-(2-fluorophenyl)-4-methyl-4H-benzo[f]imidazo [1,5-a][1,4]diazepin-3-yl)-1,2,4-oxadiazole] |  | significantly reversed; also recorded: significantly improved alternation rate | significantly reversed; also recorded: significantly improved alternation rate | 
C#Cc1ccc2c(c1)C(c1ccccc1Cl)=N[C@H](C)c1c(C(=O)N(C)C)ncn1-2 [PM-II-26, (R)-6-(2-chlorophenyl)-8-ethynyl-N,N,4-trimethyl-4H-benzo[f]imidazo[1,5-a][1,4]diazepine-3-carboxamide] |  | reversed (p<0.001) | a trend was observed; also recorded: reversed (trend: p=0.1) | 
C#Cc1ccc2c(c1)C(c1ccccc1Cl)=N[C@H](C)c1c(-c3nc(CC)no3)ncn1-2 [PM-II-84E, (R)-5-(6-(2-chlorophenyl)-8-ethynyl-4-methyl-4H-benzo[f]imidazo[1,5-a][1,4]diazepin-3-yl)-3-ethyl-1,2,4-oxadiazole] |  |  | reversed | time spent in the open arms (EPM) ([2]; 10 mg/kg i.p., 30 min before testing): significant effect; also recorded: increasing time spent in the open arms; distance travelled in the open arms (EPM) ([2]; 10 mg/kg i.p.): trend level effect
C#Cc1ccc2c(c1)C(c1ccccc1Cl)=N[C@H](C)c1c(-c3nc(C)no3)ncn1-2 [PM-III-57R, (R)-5-(6-(2-chlorophenyl)-8-ethynyl-4-methyl-4H-benzo[f]imidazo[1,5-a][1,4]diazepin-3-yl)-3-methyl-1,2,4-oxadiazole] |  | significantly reversed; also recorded: significantly improved alternation rate |  | 
